Source: patent publication US9988371B2, “Benzimidazole analogues and related methods” (The Arizona Board of Regents, on Behalf of the University …, priority 2014, dated 2018)

Tests used:
[1] = test system: pMAPK; test: pMAPK immunoblot in Nthy-ori-3-1 cells; type: cell-based, human; settings: Nthy-ory-3-1, non-transformed with oncogenic RET
Method: FIG. 3: Photographs of blots showing inhibition of RET protein endogenously expressed in TT cells (human MTC cell line expressing RET/C634W) by indicated concentrations of Pz-1 or vehicle (NT: not treated) and reduced effects in thyroid non-transformed Nthy-ori-3-1 cells. Serum-starved human TT and thyroid non-transformed Nthy-ori-3-1 cell lines were treated for 2 hr with indicated concentrations of Pz-1. 50 μg of total cell lysates were subjected to immunoblotting with anti-phospho-Y1062 (αp1062) and anti-phospho-905 (αpY905) RET antibodies, anti-phospho-MAPK (αpMAPK, T302/Y304), and anti-phospho-SHC (αpSHC, Y317) antibodies. The blots were normalized using anti-RET (αRET) and anti-SHC (αSHC).
The inhibition of RET auto-phosphorylation by Pz-1 was measured in several different cell lines including NIH3T3 fibroblasts expressing RET/C634Y or RET/M918T, TT expressing RET/C634W (MTC), Nthy-ory-3-1 (thyroid, non-transformed with RET; negative control), HEK293/RET/PTC1 (CCDC6-RET that can be found in PTC & lung cancer), HEK293/RET-KIF5B (that can be found in lung cancer), HEK293/RET/PTC3 (NCOA4-RET, that can be found in PTC & lung cancer), and HEK293 transfected with RET/C634R-V804M (FIGS. 1-3). […]
Protein lysates were prepared according to standard procedures. […] Immune complexes were detected with the enhanced chemiluminescence kit (Amersham Pharmacia Biotech, Little Chalfort, UK). […]

[2] = test system: Ba/F3 cells transfected by RET/PTC3 (NCOA4-RET); test: IL-3-independent proliferation of Ba/F3 RET/PTC3 cells; type: cell-based, murine; settings: Mus musculus, BaF3
Method: FIG. 6: Activity of Pz-1 on NCOA4-RET oncogene-driven IL-3-independent proliferation of murine Ba/F3 cells. […] Ba/F3 and Ba/F3 NCOA4-RET cells were incubated with vehicle (NT) or the indicated concentration of Pz-1 in complete medium and counted at different time points. Data are the mean±SD of one experiment performed in triplicate. Murine interleukin-3 (IL-3) dependent pro-B Ba/F3 cells were from ATCC. Ba/F3 cells stably expressing NCOA4-RET (RET/PTC3) protein were generated by transfecting long isoform (RET-51) of NCOA4-RET by electroporation. Parental and Ba/F3-NCOA4-RET cells were cultured in RPMI 1640 with 10% FBS; parental cells required also 10 ng/ml IL-3. IC50 doses (with Confidence Intervals) are indicated.
Nthy-ory-3-1 and TTcells were seeded in 60-mm dishes. Cells were kept in 2% (Nthy-ori-3-1) or 10% (TT) fetal calf serum. One day after plating, different concentrations of Pz-1 or vehicle were added to the medium and changed every 2-3 days. Cells were counted every 2-3 days. […] Parental and RET/PTC-expressing Ba/F3 were kept in 10% fetal calf serum in 6-multi wells and counted every day for 4 consecutive days, changing media every 2 days. […] IC50 doses were calculated through a curve fitting analysis from the last day of growth curves using the PRISM software program (Graphpad Software Inc). […]

[3] = PK study in rats; type: in vivo
Method: For PK studies of Pz-1 in animals, a solution formulation for oral administration was created in 500 μL of polysorbate 80, 500 μL of EtOH, and 1.0 mL of pH 2 buffer. For the toxicity studies, a suspension formulation was developed in tween 20 (20%) and xanthan gum (0.125%).
T112 (3-4 hrs) in rats was in line with T1/2 in mice (4.2 hrs).

In the case of `Cn1cc(-c2ccc3c(c2)ncn3-c2ccc(CC(=O)Nc3cc(C(C)(C)C)on3)cc2)cn1` [Pz-1, N-(5-(tert-butyl)isoxazol-3-yl)-2-(4-(5-(1-methyl-1H-pyrazol-4-yl)-1H-benzo[d]imidazol-1-yl)phenyl)acetamide], the “concentration at which pMAPK was inhibited” value [1] is reported as 100 nM, the IC50 [2] is reported as 340 pM and the T112 [3] is reported as 3 to 4 h. The volume distribution [3] was 2.02 L/kg, the AUC ([3]; 1 mg/kg (IV)) was 1.9 µg/h/mL and the AUC ([3]; 10 mg/kg (oral)) was 19 µg/h/mL. For the same molecule, the bioavaliblity ([3]; oral) was 97%, the half-life ([3]; rat, in vivo, 10 mg/kg, oral study, read-out: elimination half-life (converted)) was 4.2 h and the clearance ([3]; rat, in vivo, oral, 10 mg/kg) was 9 mL/min/kg.
